Experimental data from PubChem BioAssay (NCI).
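Exposure lasted 48 hours, with cells grown in 96-well plates and compounds tested at five concentrations. Definition used: TGI = concentration required for complete inhibition of growth.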

How the values were obtained:
Test in all cases: NCI anticancer screen, dose series, 48 h
[1] = tested on: 786-0 renal
[2] = tested on: CCRF-CEM leukemia
[3] = tested on: COLO 205 colon
[4] = tested on: HCC-2998 colon
[5] = tested on: HCT-15 colon
[6] = tested on: HOP-62 NSCLC
[7] = tested on: M14 melanoma
[8] = tested on: MALME-3M melanoma
[9] = tested on: MDA-MB-231 breast
[10] = tested on: MDA-MB-435
[11] = tested on: NCI-H226 lung
[12] = tested on: NCI/ADR-RES ovarian
[13] = tested on: OVCAR-4 ovarian
[14] = tested on: RPMI-8226 leukemia
[15] = tested on: SK-MEL-28 melanoma
[16] = tested on: SK-OV-3 ovarian
[17] = tested on: T-47D breast
[18] = tested on: U251 CNS

Compound	TGI [1] [µM]	TGI [2] [µM]	TGI [3] [µM]	TGI [4] [µM]	TGI [5] [µM]	TGI [6] [µM]	TGI [7] [µM]	TGI [8] [µM]	TGI [9] [µM]	TGI [10] [µM]	TGI [11] [µM]	TGI [12] [µM]	TGI [13] [µM]	TGI [14] [µM]	TGI [15] [µM]	TGI [16] [µM]	TGI [17] [µM]	TGI [18] [µM]
CCCCCCCCCCCCCCCCCCNc1ccn(C2OC(CO)C(O)C2O)c(=O)n1 (stereo unspecified)	> 100	30.4	> 100	> 100	> 100	> 100	> 100	> 100	> 100	> 100	> 100	> 100	> 100	> 100	> 100	> 100	> 100	> 100
CC1=C(O)C(=O)C[C@]2(C)[C@H]3CC=C4[C@@H]5CC(C)(C)CC[C@@H]5C(=O)[C@H](O)[C@@]4(C)[C@]3(C)CC[C@@H]12	> 50	> 50	> 50	> 50	> 50	> 50	> 50	> 50	> 50	> 50	> 50	> 50	> 50	> 50	> 50	> 50	> 50	> 50
CN1CCN(c2cc3c(cc2F)c(=O)c(C(=O)O)cn3C2CC2)CC1CC#N (stereo unspecified)	> 100	> 100	> 100	> 100	> 100	> 100	–	> 100	> 100	> 100	> 100	> 100	> 100	> 100	> 100	> 100	> 100	> 100
COC(=O)C12OC(C)(C(CC(=O)OC(C)(C)C)C1=O)C1C(=O)N(c3ccccc3)C(=O)C12 (stereo unspecified)	> 100	> 100	> 100	> 100	> 100	> 100	> 100	> 100	> 100	> 100	> 100	> 100	> 100	> 100	> 100	> 100	> 100	> 100
C=CCOC1=C(OCC=C)C(C2COC(C)(C)O2)OC1=O (stereo unspecified)	> 100	> 100	> 100	> 100	> 100	> 100	> 100	> 100	> 100	> 100	> 100	> 100	> 100	> 100	> 100	> 100	> 100	> 100
C=CCOc1ccc(/C(N=Nc2ccccc2)=N/NC(=O)c2ccccc2)cc1OC	> 100	> 100	> 100	> 100	> 100	> 100	> 100	> 100	> 100	> 100	> 100	> 100	> 100	–	> 100	–	> 100	> 100
CCOC(=O)c1cc(C2CCN(CC(C)CC)C2=S)c(-c2cc(C)no2)[nH]1 (stereo unspecified)	> 100	> 100	> 100	> 100	> 100	> 100	> 100	> 100	> 100	> 100	> 100	> 100	> 100	> 100	> 100	> 100	> 100	> 100
c1ccc(-c2ccc(-c3cc4ccccc4[nH]3)cc2)cc1	> 100	> 100	> 100	> 100	> 100	> 100	> 100	> 100	> 100	> 100	> 100	> 100	> 100	> 100	> 100	> 100	> 100	> 100
N#CCC(=O)c1cc(OCc2cc(OCc3ccc(Br)cc3)cc(OCc3ccc(Br)cc3)c2)cc(OCc2cc(OCc3ccc(Br)cc3)cc(OCc3ccc(Br)cc3)c2)c1	> 100	–	> 100	> 100	> 100	> 100	> 100	> 100	> 100	> 100	> 100	> 100	> 100	> 100	> 100	> 100	> 100	> 100
C#CCOCn1ccc(=O)[nH]c1=O	> 100	> 100	> 100	> 100	> 100	> 100	> 100	> 100	> 100	> 100	> 100	> 100	> 100	> 100	> 100	> 100	> 100	> 100
